The nature of data set [1]: Hepatocyte Stability Assay, rat. Note: tested at 1 µM. The format is in vitro ADME. The note with it: rat hepatocytes. How it is done:
• Preparation of working solutions: 10 mM stock solutions of test compound and positive control were prepared in DMSO. In separate conical tubes, the 10 mM solution of test compound and the positive control were diluted to 100 μM by combining 198 μL of 50% acetonitrile/50% water and 2 μL of 10 mM stock.
Preparation of Hepatocytes: Incubation medium (William's E Medium supplemented with GlutaMAX) and hepatocyte thawing medium were placed in a 37° C. water bath and allowed warming for at least 15 minutes prior to use. A vial of cryopreserved hepatocytes was transferred from storage, ensuring that vials remained at cryogenic temperatures until thawing process ensued. Cells were thawed by placing the vial in a 37° C. water bath and gently shaking the vials for 2 minutes. After thawing was completed, vial was sprayed with 70% ethanol and transferred to a biosafety cabinet. Wide-bore pipette tip were used to transfer hepatocytes into 50 mL conical tube containing thawing medium. The 50 mL conical tube were placed into a centrifuge and spun at 100 g for 10 minutes. Upon completion of spin, thawing medium was aspirated and resuspended hepatocytes in enough incubation medium to yield ˜1.5×10^6 cells/mL. Using an AO/PI Staining, cells were counted and the viable cell density was determined. Cells with poor viability (<75% viability) were determined to be not acceptable for use. Cells were diluted with incubation medium to a working cell density of 0.5×10^6 viable cells/mL.
Procedure for Stability Determination: 198 μL of hepatocytes were pipetted into each wells of a 96-well non-coated plate. The plate was placed in the incubator to allow the hepatocytes to warm for 10 minutes. 2 μL of the 100 μM test compound or positive control solutions were pipetted into respective wells of the 96-well non-coated plate to start the reaction. The plate was returned to the incubator for the designed time points. Well contents was transferred in 25 μL aliquots at time points of 0, 15, 30, 60, 90 and 120 minutes. The aliquots were then mixed with 6 volumes (150 μL) of acetonitrile containing internal standard, IS (100 nM alprazolam, 200 nM caffeine and 100 nM tolbutamide) to terminate the reaction. The mixture was vortex for 5 minutes. Samples were centrifuged for 45 minutes at 3,220 g. An aliquot of 100 μL of the supernatant was diluted by 100 μL ultra-pure water, and the mixture was used for LC/MS/MS analysis. All incubations were performed in duplicate.
Data Analysis: All calculations were carried out using Microsoft Excel. Peak areas were determined from extracted ion chromatograms. In vitro half-life (t1/2) of parent compound was determined by regression analysis of the percent parent disappearance vs. time curve.
The in vitro half-life (in vitro t1/2) was determined from the slope value:
Conversion of the in vitro t1/2 (in min) into the in vitro intrinsic clearance (in vitro CLint, in μL/min/1×10^6 cells) was done using the following equation (mean of duplicate determinations):
V=incubation volume(0.2 mL);
N=number of hepatocytes per well(0.1×10^6 cells).
“+++” indicates a CLint value less than 20 mL/min/Kg, “++” indicates a CLint between 20 and 50 mL/min/Kg, and “+” indicates an CLint above 50 mL/min/Kg.

The nature of data set [2]: Hepatocyte Stability Assay, human. The following applies: cryopreserved hepatocytes in suspension; human hepatocytes; read-out: Human hepatocyte clearance. The format is in vitro ADME.
The target of a further data set is T1, hERG channels (Homo sapiens, UniProt Q12809).
T1 construct: host or cells: HEK 293
T1 sequence (Q12809 whole entry): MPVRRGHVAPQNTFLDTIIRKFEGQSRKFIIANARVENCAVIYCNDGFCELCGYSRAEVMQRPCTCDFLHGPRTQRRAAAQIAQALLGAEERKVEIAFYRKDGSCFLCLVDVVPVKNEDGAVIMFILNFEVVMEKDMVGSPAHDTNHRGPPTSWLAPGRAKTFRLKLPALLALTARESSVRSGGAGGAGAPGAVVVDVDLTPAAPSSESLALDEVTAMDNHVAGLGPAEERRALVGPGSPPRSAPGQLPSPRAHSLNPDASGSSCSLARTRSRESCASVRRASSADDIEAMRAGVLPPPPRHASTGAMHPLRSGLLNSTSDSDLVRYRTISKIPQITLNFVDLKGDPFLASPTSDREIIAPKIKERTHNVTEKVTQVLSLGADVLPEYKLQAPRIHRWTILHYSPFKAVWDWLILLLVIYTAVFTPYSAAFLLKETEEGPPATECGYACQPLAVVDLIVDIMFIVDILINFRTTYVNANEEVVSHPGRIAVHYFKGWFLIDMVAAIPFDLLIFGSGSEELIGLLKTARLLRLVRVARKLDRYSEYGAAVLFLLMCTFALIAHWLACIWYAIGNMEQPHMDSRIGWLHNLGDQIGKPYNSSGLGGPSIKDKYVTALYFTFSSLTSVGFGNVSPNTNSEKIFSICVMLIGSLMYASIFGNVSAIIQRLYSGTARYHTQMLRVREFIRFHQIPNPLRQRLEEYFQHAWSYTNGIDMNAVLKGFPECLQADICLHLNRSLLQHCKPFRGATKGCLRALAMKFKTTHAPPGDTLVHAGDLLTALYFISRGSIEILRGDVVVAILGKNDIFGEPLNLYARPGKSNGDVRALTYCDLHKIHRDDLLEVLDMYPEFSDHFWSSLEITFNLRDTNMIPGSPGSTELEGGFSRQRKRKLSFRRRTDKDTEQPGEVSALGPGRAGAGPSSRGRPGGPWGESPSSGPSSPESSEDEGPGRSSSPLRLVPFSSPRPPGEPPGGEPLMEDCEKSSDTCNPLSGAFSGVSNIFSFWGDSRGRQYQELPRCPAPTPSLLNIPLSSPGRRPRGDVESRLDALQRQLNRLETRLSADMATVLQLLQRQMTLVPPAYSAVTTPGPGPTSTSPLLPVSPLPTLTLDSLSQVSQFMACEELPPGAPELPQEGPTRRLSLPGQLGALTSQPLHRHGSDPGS
The experiment in a line: hERG Inhibition Assay, patch clamp in hERG stably expressed HEK 293 cell line. The format is cell-based. The note with it: read-out: hERG channel: IC50. On the procedure:
hERG stably expressed HEK 293 cell line (Cat #K1236) was purchased from Invitrogen. The cells are cultured in 85% DMEM, 10% dialyzed FBS, 0.1 mM NEAA, 25 mM HEPES, 100 U/mL Penicillin-Streptomycin and 5 μg/mL Blasticidin and 400 μg/mL Geneticin. Cells are split using TrypLE™ Express about three times a week and maintained between ˜40% to ˜80% confluence. Before the assay, the cells were onto the coverslips at 5×10^5 cells/per 6 cm cell culture dish and induced with doxycycline at 1 μg/mL for 48 hours.
External solution (in mM): 132 NaCl, 4 KCl, 3 CaCl2), 0.5 MgCl2, 11.1 glucose, and 10 HEPES (pH adjusted to 7.35 with NaOH). Internal solution (in mM): 140 KCl, 2 MgCl2, 10 EGTA, 10 HEPES and 5 MgATP (pH adjusted to 7.35 with KOH). Working solution preparation for test compound: test compounds were initially prepared in DMSO with final concentration of 10 mM as stock solution. Stock solution of each compound was serial-diluted by ratio of 1:3 with DMSO to prepare additional 3 intermediate solutions including 3.33, 1.11 and 0.37 mM.
Before performing the hERG assay, the working solutions were prepared by dilution of 10, 3.33, 1.11, and 0.37 mM intermediate solutions in 1000 folds using extracellular solution, while 30 μM working solution was prepared by 333.333-folds dilution of 10 mM DMSO stock. so that the final concentration of working solution was 30, 10, 3.33, 1.11 and 0.37 μM. The final DMSO concentration in working solutions was maintained in range of 0.1-0.3% (v/v).
Experimental procedure: the coverslip was removed from the cell culture dish and placed it on the microscope stage in bath chamber. A desirable cell was located using the ×10 objective. The tip of the electrode was located under the microscope using the ×10 objective by focusing above the plane of the cells. Once the tip was in focus, the electrode was advanced downwards towards the cell using the coarse controls of the manipulator, while simultaneously moving the objective to keep the tip in focus. When directly over the cell, the fine controls of the manipulator were used to approach the surface of the cell in small steps, by using the ×40 objective. Gentle suction was applied through the side-port of the electrode holder to form a gigaohm seal.
Cfast was used to remove the capacity current that is in coincidence with the voltage step. The whole cell configuration was obtained by applying repetitive, brief, strong suction until the membrane patch has ruptured. membrane potential was set to −60 mV at this point to ensure that hERG channels were not open. The spikes of capacity current was then cancelled using the Cslow on the amplifier.
Holding potential was set to −90 mV for 500 ms; current was recorder at 20 kHz and filtered at 10 kHz. Leaking current was tested at −80 mV for 500 ms.
The hERG current was elicited by depolarizing at +30 mV for 4.8 seconds and then the voltage was taken back to −50 mV for 5.2 seconds to remove the inactivation and observe the deactivating tail current. The maximum amount of tail current size was used to determine hERG current amplitude. Current was recorded for 120 seconds to assess current stability. Only stable cells with recording parameters above threshold were proceeded with further drug administrations. Vehicle control was applied to the cells to establish the baseline. […] For dose response testing, 5 doses of test compound was applied to the cells cumulatively from low to high concentrations. In order to ensure the good performance of cultured cells and operations, the positive control, Dofetilide, with 5 doses was also used to test the same batch of cells.
The following criteria were used to determine data acceptability: initial seal resistance>1 GΩ; leak currents<50% of the control peak tail currents at any time; the peak tail amplitude>300 pA; membrane resistance Rm>500 MΩ; access resistance (Ra)<15 MΩ; apparent run-down of peak current<2.5% per min. […]
Background: hERG is a cardiac potassium channel; its block is linked to QT prolongation.

By IC50 is commonly meant the concentration that gives 50% inhibition. Take `O=c1c2cc(-c3ccc(Cl)cc3)nc(-c3cccnc3)c2ncn1[C@H]1COC[C@@H]1O` [Compound 125, 6-(4-chlorophenyl)-3-((3S,4R)-4-hydroxytetrahydrofuran-3-yl)-8-(pyridin-3-yl)pyrido[3,4-d]pyrimidin-4(3H)-one]: the Rat hepatocyte clearance result in data set [1] is given as “+ (“+” indicates an CLint above 50 mL/min/Kg)”. Moreover, the CLint scaled at 1 μM in data set [2] was below 20 mL/min/kg. Besides, the concentration for half-maximal inhibition (IC50) at hERG channels stood at 7.67 µM.

(Values after patent publication US20230295152A1 (SENDA BIOSCIENCES, INC., priority 2019, published 2023).)
